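Step 1: Grow cells in 96-well plates. Step 2: Expose to compound for 48 hours at 5 concentrations. Step 3: Interpolate endpoints linearly; if unreached, use highest concentration. The concentration for 50% growth inhibition is given as GI50.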 Active and inactive are the calls of the source. Rule as the data show it: active = GI50 up to about 1.1 µM and inactive = higher.
Legend:
Experiment in all cases: growth of human tumour cells (NCI), 48 h
HCT-116 = system: HCT-116
OVCAR-5 = system: OVCAR-5
HT-29 = system: HT-29
SF-295 = system: SF-295
NCI-H23 = system: NCI-H23
SK-MEL-5 = system: SK-MEL-5
SK-OV-3 = system: SK-OV-3
SN12C = system: SN12C
IGROV-1 = system: IGROV-1
NCI-H226 = system: NCI-H226
KM12 = system: KM12
786-0 = system: 786-0
SK-MEL-2 = system: SK-MEL-2
K562 = system: K562
A498 = system: A498
SNB-19 = system: SNB-19
TK-10 = system: TK-10
SR = system: SR

SMILES | GI50 (HCT-116) | GI50 (OVCAR-5) | GI50 (HT-29) | GI50 (SF-295) | GI50 (NCI-H23) | GI50 (SK-MEL-5) | GI50 (SK-OV-3) | GI50 (SN12C) | GI50 (IGROV-1) | GI50 (NCI-H226) | GI50 (KM12) | GI50 (786-0) | GI50 (SK-MEL-2) | GI50 (K562) | GI50 (A498) | GI50 (SNB-19) | GI50 (TK-10) | GI50 (SR)
c1cc2c(cc1C1OCC3C(c4ccc5c(c4)OCO5)OCC13)OCO2 (stereo unspecified) | 51.5 µM (inactive) | 55.6 µM (inactive) | 35.6 µM (inactive) | 87.1 µM (inactive) | 38.5 µM (inactive) | 28.4 µM (inactive) | > 100 µM (inactive) | 92.3 µM (inactive) | 75.2 µM (inactive) | 58.3 µM (inactive) | 58.9 µM (inactive) | > 100 µM (inactive) | 98.2 µM (inactive) | 35.6 µM (inactive) | 55.3 µM (inactive) | > 100 µM (inactive) | 78.9 µM (inactive) | 
CCOC(=O)C(=CNC(Cc1c[nH]c2ccccc12)C(=O)OC)C(=O)OCC (stereo unspecified) |  |  | > 100 µM (inactive) | > 100 µM (inactive) | > 100 µM (inactive) | 86.3 µM (inactive) | > 100 µM (inactive) | > 100 µM (inactive) | > 100 µM (inactive) | > 100 µM (inactive) |  |  | 63.8 µM (inactive) | > 100 µM (inactive) | > 100 µM (inactive) | > 100 µM (inactive) | > 100 µM (inactive) | 
C#CCOc1c(C(=O)OCC)c(=O)n(C)c2ccccc12 |  |  | > 100 µM (inactive) | > 100 µM (inactive) | > 100 µM (inactive) | > 100 µM (inactive) | > 100 µM (inactive) | > 100 µM (inactive) | > 100 µM (inactive) | > 100 µM (inactive) |  |  | > 100 µM (inactive) | > 100 µM (inactive) | > 100 µM (inactive) | > 100 µM (inactive) | > 100 µM (inactive) | 
COC(=O)CC(c1ccccc1)C1(c2ccccc2)SCCS1 (stereo unspecified) | 101 µM (inactive) | > 290 µM (inactive) | 222 µM (inactive) | > 290 µM (inactive) | 130 µM (inactive) | 189 µM (inactive) | > 290 µM (inactive) | 185 µM (inactive) | > 290 µM (inactive) | > 290 µM (inactive) | 108 µM (inactive) | > 290 µM (inactive) | 261 µM (inactive) | 133 µM (inactive) |  | > 290 µM (inactive) | > 290 µM (inactive) | 54.8 µM (inactive)
Cn1nc(N)nc1N=S(C)(C)=N |  | > 100 µM (inactive) | > 100 µM (inactive) | > 100 µM (inactive) | > 100 µM (inactive) | > 100 µM (inactive) | > 100 µM (inactive) | > 100 µM (inactive) | > 100 µM (inactive) | 72.4 µM (inactive) | > 100 µM (inactive) | > 100 µM (inactive) | > 100 µM (inactive) | > 100 µM (inactive) | > 100 µM (inactive) | > 100 µM (inactive) | > 100 µM (inactive) | 
CCCCN(CCCC)C(=O)/C(CC(=O)c1cccc2ccccc12)=N\NC(=O)c1cc2ccccc2cc1O | 13.1 µM (inactive) | 30.3 µM (inactive) | 23.8 µM (inactive) | 18.3 µM (inactive) | 19.9 µM (inactive) | 13.5 µM (inactive) |  | 18.5 µM (inactive) | 15.3 µM (inactive) | 19.9 µM (inactive) | 24.8 µM (inactive) | 20.3 µM (inactive) | 14.1 µM (inactive) |  |  | 26.1 µM (inactive) | 40.1 µM (inactive) | 
O=C1CCCCCCCCCCC(=O)C2CCOCCOCCOCCC1Cc1cccc(n1)C2 | 88.7 µM (inactive) |  | > 100 µM (inactive) | 76.7 µM (inactive) | > 100 µM (inactive) | 42.4 µM (inactive) | > 100 µM (inactive) | 64.9 µM (inactive) | 90.4 µM (inactive) | 60 µM (inactive) | 59.3 µM (inactive) | > 100 µM (inactive) | > 100 µM (inactive) | 50.1 µM (inactive) | 82.8 µM (inactive) | > 100 µM (inactive) | > 100 µM (inactive) | 
CCCOc1nc(N)c2cnn(C3CCCCO3)c2n1 (stereo unspecified) | > 100 µM (inactive) | > 100 µM (inactive) | > 100 µM (inactive) | > 100 µM (inactive) | > 100 µM (inactive) | > 100 µM (inactive) | > 100 µM (inactive) | > 100 µM (inactive) | > 100 µM (inactive) | > 100 µM (inactive) | > 100 µM (inactive) | > 100 µM (inactive) | > 100 µM (inactive) | > 100 µM (inactive) |  | > 100 µM (inactive) |  | > 100 µM (inactive)
O=C1C(=O)N(c2cc(Cl)ccc2Cl)C(=O)C(=O)C1c1nc2ccccc2s1 | 66.5 µM (inactive) | > 100 µM (inactive) | > 100 µM (inactive) | > 100 µM (inactive) | > 100 µM (inactive) | > 100 µM (inactive) | > 100 µM (inactive) | > 100 µM (inactive) | > 100 µM (inactive) | 34.4 µM (inactive) | > 100 µM (inactive) | > 100 µM (inactive) | > 100 µM (inactive) | 93.1 µM (inactive) | > 100 µM (inactive) | > 100 µM (inactive) | > 100 µM (inactive) | 
CC(C)(C)[Si](C)(C)O/N=C\c1cccc(O[Si](C)(C)C(C)(C)C)c1 | 18.6 µM (inactive) | 20.1 µM (inactive) | 16.5 µM (inactive) | 18 µM (inactive) |  | 17.8 µM (inactive) | 21 µM (inactive) | 19.9 µM (inactive) | 18.6 µM (inactive) |  | 18 µM (inactive) | 19.2 µM (inactive) | 17.9 µM (inactive) | 18.1 µM (inactive) |  | 20.7 µM (inactive) | 24.5 µM (inactive) | 
CCCCN/C(=N\C#N)N(Cc1ccccc1)Cc1ccccc1 | 20.8 µM (inactive) | 23.5 µM (inactive) | 14.7 µM (inactive) | 23.4 µM (inactive) | 24.6 µM (inactive) | 13.3 µM (inactive) | 29.7 µM (inactive) | 27.7 µM (inactive) | 22.2 µM (inactive) | 41.7 µM (inactive) | 28.2 µM (inactive) | 29.9 µM (inactive) | 15.2 µM (inactive) | 16.6 µM (inactive) | 17.3 µM (inactive) | 35.7 µM (inactive) | 31.6 µM (inactive) | 
COC(=O)C(CC(=O)c1c[nH]c2ccccc12)c1c[nH]c2ccccc12 (stereo unspecified) | 15.8 µM (inactive) | 22.2 µM (inactive) | 16.9 µM (inactive) | > 10 µM (inactive) | 16.7 µM (inactive) | 16.4 µM (inactive) | 41.9 µM (inactive) |  | > 10 µM (inactive) | 22 µM (inactive) | > 10 µM (inactive) | 23.9 µM (inactive) | 20.1 µM (inactive) | 18.1 µM (inactive) | 20.3 µM (inactive) |  | 31.2 µM (inactive) | 
CN(C)CCCOc1ccc(/C=C2/CCC/C(=C/c3ccc(OCCCN(C)C)cc3)C2=O)cc1 | 1.37 µM (inactive) | 0.239 µM (active) | 0.442 µM (active) | 1.9 µM (inactive) | 1.74 µM (inactive) | 2.23 µM (inactive) | 1.93 µM (inactive) | 1.39 µM (inactive) | 2.72 µM (inactive) |  | 1.32 µM (inactive) | 1.3 µM (inactive) | 2.03 µM (inactive) | 0.299 µM (active) | 1.85 µM (inactive) | 2.08 µM (inactive) | 2.67 µM (inactive) | 

— ChEMBL document CHEMBL1201862, “PubChem BioAssay data set” (2004)
